The source of these data is patent US12653858B2, “Herbal composition, preparation method thereof and method for preventing or treating respiratory disorder by administering the same” (priority 2021, dated 2026).

Experiment [1] deals with ACE2. Nature of the experiment: ACE2 degradation in WI-38 cells (cycloheximide time course, BafA1 lysosome inhibition). The settings on record: WI-38 cells pretreated with BafA1 10 μM 30 min, then JGF 10 μg/mL 2 h. It is filed as cell-based, human. The procedure:
Actin was used as the internal control. […] Actin was used as the internal control.
For example, it was examined whether JGF-induced ACE2 degradation is dependent on proteasome or lysosomal systems. Initially, the half-life of ACE2 in WI-38 cells was analyzed following treatment with cycloheximide (CHX), which is a ribosome inhibitor that blocks protein synthesis.

Experiment [2] concerns SARS-CoV-2 S-mediated membrane fusion. The experiment can be described thus: SARS-CoV-2 spike-mediated cell-cell fusion (syncytium formation) assay. It is filed as cell-based.

As for `CO/C1=C\C(C)=C\[C@@H](C)[C@@H](O)[C@@H](C)C/C(C)=C/C=C/[C@H](OC)[C@@H]([C@@H](C)[C@@H](O)[C@H](C)[C@@]2(O)C[C@@H](O)[C@H](C)[C@@H](C(C)C)O2)OC1=O` [BafA1], in experiment [1], the “ACE2 level after JGF treatment with lysosome inhibitor” value was “recovered the ACE2 level”. Consider `CN(C)C(=O)COC(=O)Cc1ccc(OC(=O)c2ccc(NC(=N)N)cc2)cc1` [camostat], for which, in experiment [2], the Formation of syncytium entry is listed as “inhibition of syncytium formation”.
